IC50 data for 22 compounds are collected here from US9527869B2, “Indolizine derivatives as phoshoinositide 3-kinases inhibitors” (CHIESI FARMACEUTICI S.P.A., priority 2014, dated 2016).

What all share (assay type): biochemical
In experiment [1] the target is T1, PI3Kδ (Homo sapiens, UniProt O00329).
T1 construct: purchased Millipore Ltd (Billerica, Mass.)
The experiment in a line: In vitro determination of the PI3K enzyme inhibitory activity in the cell free assay (ADP-Glo Kinase Assay), PI3Kδ. The conditions noted are these: ATP 80 μM, read-out: PI3K delta inhibition. A digest of the protocol: (§1)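 Human recombinant PI3K isoforms with PI/PS lipid substrates (50 μM in 2× buffer, Tris pH 7.5, DTT) were run 60 min at room temperature. Final ATP was 50 μM for α, 100 μM for β, 30 μM for γ and 80 μM for δ. ADP formation was read by ADP-Glo luminescence, and IC50 came from a four-parameter logistic fit.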

For experiment [2], the target named is T2, PI3Kβ (Homo sapiens, UniProt P42338).
T2 construct: purchased Millipore Ltd (Billerica, Mass.)
T2 sequence (P42338 whole entry): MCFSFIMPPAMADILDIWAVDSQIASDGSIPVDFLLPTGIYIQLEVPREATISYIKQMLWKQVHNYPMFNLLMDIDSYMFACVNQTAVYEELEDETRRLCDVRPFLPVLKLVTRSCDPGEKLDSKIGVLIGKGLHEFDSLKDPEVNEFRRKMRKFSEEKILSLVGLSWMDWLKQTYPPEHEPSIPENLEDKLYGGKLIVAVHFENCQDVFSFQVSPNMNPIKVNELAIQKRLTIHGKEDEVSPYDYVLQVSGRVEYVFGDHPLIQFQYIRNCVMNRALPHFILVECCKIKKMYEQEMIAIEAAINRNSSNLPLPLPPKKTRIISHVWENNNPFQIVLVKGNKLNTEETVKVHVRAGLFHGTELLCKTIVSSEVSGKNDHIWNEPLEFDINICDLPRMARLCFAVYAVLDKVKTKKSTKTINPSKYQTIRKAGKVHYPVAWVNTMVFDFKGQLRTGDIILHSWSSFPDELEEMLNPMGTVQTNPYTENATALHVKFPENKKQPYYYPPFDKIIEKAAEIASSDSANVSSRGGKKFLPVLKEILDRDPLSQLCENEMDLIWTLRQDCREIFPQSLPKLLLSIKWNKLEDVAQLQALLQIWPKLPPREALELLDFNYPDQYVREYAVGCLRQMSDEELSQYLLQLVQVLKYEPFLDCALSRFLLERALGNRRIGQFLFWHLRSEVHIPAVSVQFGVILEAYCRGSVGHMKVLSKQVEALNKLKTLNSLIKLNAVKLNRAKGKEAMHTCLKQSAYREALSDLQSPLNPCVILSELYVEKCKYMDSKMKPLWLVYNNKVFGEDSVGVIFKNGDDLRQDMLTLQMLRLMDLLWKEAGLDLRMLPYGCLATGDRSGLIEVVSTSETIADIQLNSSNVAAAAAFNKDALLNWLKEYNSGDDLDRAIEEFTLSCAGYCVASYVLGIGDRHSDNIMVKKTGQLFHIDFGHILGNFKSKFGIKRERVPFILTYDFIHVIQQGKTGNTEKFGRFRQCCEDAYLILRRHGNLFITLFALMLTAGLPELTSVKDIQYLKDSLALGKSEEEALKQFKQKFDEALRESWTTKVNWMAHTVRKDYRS
T2 sequence (P27986 whole entry partner): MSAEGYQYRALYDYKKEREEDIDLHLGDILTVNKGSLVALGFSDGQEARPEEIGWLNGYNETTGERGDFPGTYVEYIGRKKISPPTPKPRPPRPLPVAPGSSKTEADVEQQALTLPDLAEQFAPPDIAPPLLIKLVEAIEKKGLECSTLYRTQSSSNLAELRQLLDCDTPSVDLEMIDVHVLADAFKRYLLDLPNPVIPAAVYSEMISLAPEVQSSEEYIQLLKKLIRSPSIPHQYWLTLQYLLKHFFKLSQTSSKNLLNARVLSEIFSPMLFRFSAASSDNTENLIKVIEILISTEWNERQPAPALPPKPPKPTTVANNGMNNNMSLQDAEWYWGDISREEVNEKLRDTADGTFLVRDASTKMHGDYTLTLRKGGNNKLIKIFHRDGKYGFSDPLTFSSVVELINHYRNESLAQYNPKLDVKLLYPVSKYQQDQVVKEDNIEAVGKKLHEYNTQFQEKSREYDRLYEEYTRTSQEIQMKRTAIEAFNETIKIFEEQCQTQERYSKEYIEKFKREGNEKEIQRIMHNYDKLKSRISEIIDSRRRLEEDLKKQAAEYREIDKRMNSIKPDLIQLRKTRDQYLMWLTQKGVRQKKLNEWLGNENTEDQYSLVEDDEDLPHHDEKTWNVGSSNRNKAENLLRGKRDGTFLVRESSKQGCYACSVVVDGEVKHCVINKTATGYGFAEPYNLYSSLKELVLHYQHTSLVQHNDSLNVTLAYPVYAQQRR
The experiment in a line: In vitro determination of the PI3K enzyme inhibitory activity in the cell free assay (ADP-Glo Kinase Assay), PI3Kβ. The conditions noted are these: ATP 100 μM, read-out: PI3K beta inhibition. Summed up:
as §1

Experiment [3] has as its target T3, PI3Kα (Homo sapiens, UniProt P42336).
T3 construct: purchased Millipore Ltd (Billerica, Mass.)
The experiment in a line: In vitro determination of the PI3K enzyme inhibitory activity in the cell free assay (ADP-Glo Kinase Assay), PI3Kα. The conditions noted are these: ATP 50 μM, read-out: PI3K alpha inhibition. A digest of the protocol: as §1

Experiment [4] has as its target T4, PI3Kγ (Homo sapiens, UniProt P48736).
T4 construct: purchased Millipore Ltd (Billerica, Mass.)
Put plainly: In vitro determination of the PI3K enzyme inhibitory activity in the cell free assay (ADP-Glo Kinase Assay), PI3Kγ. The note with it: ATP 30 μM, read-out: PI3K gamma inhibition. A digest of the protocol: as §1
On the technique in general: ADP-Glo turns the ADP formed in a reaction into a luminescent signal.

T1 sequence (O00329 whole entry): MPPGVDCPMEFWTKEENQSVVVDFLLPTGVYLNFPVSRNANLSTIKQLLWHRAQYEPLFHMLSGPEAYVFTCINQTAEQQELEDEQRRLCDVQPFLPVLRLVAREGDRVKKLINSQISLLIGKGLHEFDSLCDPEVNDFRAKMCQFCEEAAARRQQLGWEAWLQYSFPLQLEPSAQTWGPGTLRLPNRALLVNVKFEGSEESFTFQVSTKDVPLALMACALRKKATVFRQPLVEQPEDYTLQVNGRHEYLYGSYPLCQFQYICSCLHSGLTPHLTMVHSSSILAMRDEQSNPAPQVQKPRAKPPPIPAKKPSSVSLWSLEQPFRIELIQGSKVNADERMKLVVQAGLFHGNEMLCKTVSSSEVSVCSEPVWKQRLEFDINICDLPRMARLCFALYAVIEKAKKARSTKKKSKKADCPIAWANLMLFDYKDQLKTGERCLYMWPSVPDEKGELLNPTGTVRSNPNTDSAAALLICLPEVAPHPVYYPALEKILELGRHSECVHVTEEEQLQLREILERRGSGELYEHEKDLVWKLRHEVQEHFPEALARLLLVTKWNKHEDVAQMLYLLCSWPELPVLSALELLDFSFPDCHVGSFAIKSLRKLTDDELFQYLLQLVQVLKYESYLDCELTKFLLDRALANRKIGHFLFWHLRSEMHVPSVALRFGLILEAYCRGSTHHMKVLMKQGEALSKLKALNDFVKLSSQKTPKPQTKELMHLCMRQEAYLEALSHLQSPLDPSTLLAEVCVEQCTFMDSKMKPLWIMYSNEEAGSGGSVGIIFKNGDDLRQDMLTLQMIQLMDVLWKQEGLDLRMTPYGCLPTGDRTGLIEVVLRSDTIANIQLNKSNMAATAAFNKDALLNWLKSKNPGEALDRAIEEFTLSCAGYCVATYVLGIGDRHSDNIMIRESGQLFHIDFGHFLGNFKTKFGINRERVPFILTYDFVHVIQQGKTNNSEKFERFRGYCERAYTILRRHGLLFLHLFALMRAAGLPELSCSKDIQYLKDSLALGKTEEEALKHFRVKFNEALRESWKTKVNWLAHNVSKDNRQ
T1 sequence (P27986 whole entry partner): as the sequence (P27986 whole entry partner) above
T4 sequence (P48736 whole entry): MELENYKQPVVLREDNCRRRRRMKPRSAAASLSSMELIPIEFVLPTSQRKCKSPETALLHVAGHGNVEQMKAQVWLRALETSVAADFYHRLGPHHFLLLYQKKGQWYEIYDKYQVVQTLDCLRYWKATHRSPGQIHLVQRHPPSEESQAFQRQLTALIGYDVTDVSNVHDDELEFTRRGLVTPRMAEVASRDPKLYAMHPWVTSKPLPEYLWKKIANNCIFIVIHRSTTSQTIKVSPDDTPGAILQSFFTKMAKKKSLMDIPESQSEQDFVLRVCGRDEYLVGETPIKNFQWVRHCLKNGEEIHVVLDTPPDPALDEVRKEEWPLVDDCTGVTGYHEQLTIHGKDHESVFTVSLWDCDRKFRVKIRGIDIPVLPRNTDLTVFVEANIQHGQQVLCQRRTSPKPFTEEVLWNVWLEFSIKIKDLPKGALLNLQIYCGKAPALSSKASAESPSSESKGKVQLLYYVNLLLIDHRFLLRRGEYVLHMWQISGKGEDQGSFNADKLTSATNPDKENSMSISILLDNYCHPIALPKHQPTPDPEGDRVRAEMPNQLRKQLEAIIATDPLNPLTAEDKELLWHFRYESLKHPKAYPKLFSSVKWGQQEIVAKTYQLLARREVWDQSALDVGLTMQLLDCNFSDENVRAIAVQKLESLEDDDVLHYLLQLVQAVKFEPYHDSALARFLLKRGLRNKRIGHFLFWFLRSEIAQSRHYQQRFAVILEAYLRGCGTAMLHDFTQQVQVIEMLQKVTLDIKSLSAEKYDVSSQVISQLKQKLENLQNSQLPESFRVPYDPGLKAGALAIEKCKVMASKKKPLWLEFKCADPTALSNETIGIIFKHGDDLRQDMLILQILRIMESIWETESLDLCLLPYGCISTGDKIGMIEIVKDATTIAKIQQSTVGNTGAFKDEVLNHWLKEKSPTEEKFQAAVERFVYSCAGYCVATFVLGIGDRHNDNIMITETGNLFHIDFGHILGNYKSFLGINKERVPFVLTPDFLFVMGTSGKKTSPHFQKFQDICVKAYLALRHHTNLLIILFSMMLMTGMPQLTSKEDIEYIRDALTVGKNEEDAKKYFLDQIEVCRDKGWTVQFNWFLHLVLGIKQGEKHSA
T3 sequence (P42336 whole entry): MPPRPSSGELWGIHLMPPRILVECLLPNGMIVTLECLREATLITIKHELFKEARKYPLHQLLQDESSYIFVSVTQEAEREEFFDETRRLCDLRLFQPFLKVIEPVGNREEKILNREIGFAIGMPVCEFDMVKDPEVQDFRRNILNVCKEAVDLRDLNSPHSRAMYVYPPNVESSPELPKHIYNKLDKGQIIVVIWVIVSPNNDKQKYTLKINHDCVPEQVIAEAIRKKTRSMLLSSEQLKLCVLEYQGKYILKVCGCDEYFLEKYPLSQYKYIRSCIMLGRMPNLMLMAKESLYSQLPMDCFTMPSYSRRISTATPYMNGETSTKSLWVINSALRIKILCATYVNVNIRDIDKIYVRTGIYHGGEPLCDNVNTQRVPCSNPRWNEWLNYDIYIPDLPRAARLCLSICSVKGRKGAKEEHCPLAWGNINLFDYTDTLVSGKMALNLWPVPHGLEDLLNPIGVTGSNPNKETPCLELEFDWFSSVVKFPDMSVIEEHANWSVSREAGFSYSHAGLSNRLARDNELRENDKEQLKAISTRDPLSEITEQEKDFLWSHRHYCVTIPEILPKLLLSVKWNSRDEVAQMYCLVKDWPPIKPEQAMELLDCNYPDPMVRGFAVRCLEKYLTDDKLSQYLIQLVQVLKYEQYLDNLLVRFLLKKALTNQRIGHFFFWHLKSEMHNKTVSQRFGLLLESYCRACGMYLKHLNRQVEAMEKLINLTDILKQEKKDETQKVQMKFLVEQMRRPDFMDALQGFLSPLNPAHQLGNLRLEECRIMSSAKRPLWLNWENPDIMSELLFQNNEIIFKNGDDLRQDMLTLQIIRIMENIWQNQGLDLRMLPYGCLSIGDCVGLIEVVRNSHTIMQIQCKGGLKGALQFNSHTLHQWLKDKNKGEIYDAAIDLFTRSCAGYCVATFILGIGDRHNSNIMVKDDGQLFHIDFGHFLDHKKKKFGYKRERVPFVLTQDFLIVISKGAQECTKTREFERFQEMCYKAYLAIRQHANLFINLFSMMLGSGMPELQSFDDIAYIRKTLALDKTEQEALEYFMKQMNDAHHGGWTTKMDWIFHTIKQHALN
T3 sequence (P27986 whole entry partner): as the sequence (P27986 whole entry partner) above

On to `CC(c1cc2ccccn2c1-c1ccccn1)n1nc(-c2ccccc2)c2c(N)ncnc21` (stereo not shown) [Example 60, 3-phenyl-1-{1-[3-(pyridin-2-yl)indolizin-2-yl]ethyl}-1H-pyrazolo[3,4-d]pyrimidin-4-amine], for which the IC50 is 10 to 1000 nM in experiment [1], above 1000 nM in experiment [2], above 1000 nM in experiment [3] and above 1000 nM in experiment [4].

On to `CC(c1cc2ccccn2c1-c1ccccn1)n1nc(-c2cccc(O)c2)c2c(N)ncnc21` (stereo not shown) [Example 61, 3-(4-amino-1-{1-[3-(pyridin-2-yl)indolizin-2-yl]ethyl}-1H-pyrazolo[3,4-d]pyrimidin-3-yl)phenol], for which the IC50 in experiment [1] is 10 to 1000 nM; in experiment [2], 10 to 1000 nM; in experiment [3], above 1000 nM; in experiment [4], 10 to 1000 nM.

For the compound `COc1cc(F)cc(-c2nn(C(C)c3cc4ccccn4c3-c3ccccn3)c3ncnc(N)c23)c1` (stereo not shown) [Example 62, 3-(3-fluoro-5-methoxyphenyl)-1-{1-[3-(pyridin-2-yl)indolizin-2-yl]ethyl}-1H-pyrazolo[3,4-d]pyrimidin-4-amine], the IC50 was 10 to 1000 nM in experiment [1], above 1000 nM in experiment [2], above 1000 nM in experiment [3] and above 1000 nM in experiment [4].

Turning to `CC(=O)Nc1cccc(-c2nn(C(C)c3cc4ccccn4c3-c3ccccn3)c3ncnc(N)c23)c1` (stereo not shown) [Example 63, N-[3-(4-amino-1-{1-[3-(pyridin-2-yl)indolizin-2-yl]ethyl}-1H-pyrazolo[3,4-d]pyrimidin-3-yl)phenyl]acetamide], the IC50 in experiment [1], in experiment [2], in experiment [3] and in experiment [4] was above 1000 nM throughout.

As to `CC(c1cc2ccccn2c1-c1ccccn1)n1nc(-c2cccc(CO)c2)c2c(N)ncnc21` (stereo not shown) [Example 64, [3-(4-amino-1-{1-[3-(pyridin-2-yl)indolizin-2-yl]ethyl}-1H-pyrazolo[3,4-d]pyrimidin-3-yl)phenyl]methanol], the IC50 in experiment [1] is 10 to 1000 nM; in experiment [2] it was above 1000 nM; in experiment [3], above 1000 nM; in experiment [4], above 1000 nM.

For the compound `CC(c1cc2ccccn2c1-c1ccccn1)n1nc(-c2cc(O)cc(C(F)(F)F)c2)c2c(N)ncnc21` (stereo not shown) [Example 65, 3-(4-amino-1-{1-[3-(pyridin-2-yl)indolizin-2-yl]ethyl}-1H-pyrazolo[3,4-d]pyrimidin-3-yl)-5-(trifluoromethyl)phenol], the IC50 in experiment [1] is below 10 nM; in experiment [2], 10 to 1000 nM; in experiment [3], above 1000 nM; in experiment [4], 10 to 1000 nM.

Turning to `CC(c1cc2ccccn2c1-c1ccccn1)n1nc(-c2cccc(F)c2)c2c(N)ncnc21` (stereo not shown) [Example 66, 3-(3-fluorophenyl)-1-{1-[3-(pyridin-2-yl)indolizin-2-yl]ethyl}-1H-pyrazolo[3,4-d]pyrimidin-4-amine], the IC50 was 10 to 1000 nM in experiment [1], 10 to 1000 nM in experiment [2], above 1000 nM in experiment [3] and above 1000 nM in experiment [4].

In the case of `CC(c1cc2ccccn2c1-c1ccccn1)n1nc(-c2cccc(NS(C)(=O)=O)c2)c2c(N)ncnc21` (stereo not shown) [Example 67, N-[3-(4-amino-1-{1-[3-(pyridin-2-yl)indolizin-2-yl]ethyl}-1H-pyrazolo[3,4-d]pyrimidin-3-yl)phenyl]methanesulfonamide], the IC50 in experiment [1] was 10 to 1000 nM; in experiment [2] it was above 1000 nM; in experiment [3] it was above 1000 nM; in experiment [4], above 1000 nM.

Consider `CC(c1cc2ccccn2c1-c1ccccn1)n1nc(-c2cccnc2)c2c(N)ncnc21` (stereo not shown) [Example 68, 1-{1-[3-(pyridin-2-yl)indolizin-2-yl]ethyl}-3-(pyridin-3-yl)-1H-pyrazolo[3,4-d]pyrimidin-4-amine], for which the IC50 was 10 to 1000 nM in experiment [1], above 1000 nM in experiment [2], above 1000 nM in experiment [3] and above 1000 nM in experiment [4].

For `CC(c1cc2ccccn2c1-c1ccccn1)n1nc(-c2cncc(O)c2)c2c(N)ncnc21` (stereo not shown) [Example 69, 5-(4-amino-1-{1-[3-(pyridin-2-yl)indolizin-2-yl]ethyl}-1H-pyrazolo[3,4-d]pyrimidin-3-yl)pyridin-3-ol], the IC50 in experiment [1] is below 10 nM; in experiment [2], 10 to 1000 nM; in experiment [3], above 1000 nM; in experiment [4], 10 to 1000 nM.

Turning to `CC(c1cc2ccccn2c1-c1ccccn1)n1nc(-c2ccc(O)c(F)c2)c2c(N)ncnc21` (stereo not shown) [Example 70, 4-(4-amino-1-{1-[3-(pyridin-2-yl)indolizin-2-yl]ethyl}-1H-pyrazolo[3,4-d]pyrimidin-3-yl)-2-fluorophenol], the IC50 in experiment [1] was 10 to 1000 nM; in experiment [2] it was above 1000 nM; in experiment [3], above 1000 nM; in experiment [4] it was 10 to 1000 nM.

With `CC(c1cc2ccccn2c1-c1ccccn1)n1nc(-c2ccc(F)c(O)c2)c2c(N)ncnc21` (stereo not shown) [Example 71, 5-(4-amino-1-{1-[3-(pyridin-2-yl)indolizin-2-yl]ethyl}-1H-pyrazolo[3,4-d]pyrimidin-3-yl)-2-fluorophenol], the IC50 was 10 to 1000 nM in experiment [1], above 1000 nM in experiment [2], above 1000 nM in experiment [3] and 10 to 1000 nM in experiment [4].

As to `CC(c1cc2ccccn2c1-c1ccccn1)n1nc(-c2cc(O)cc(Cl)c2)c2c(N)ncnc21` (stereo not shown) [Example 72, 3-(4-amino-1-{1-[3-(pyridin-2-yl)indolizin-2-yl]ethyl}-1H-pyrazolo[3,4-d]pyrimidin-3-yl)-5-chlorophenol], the IC50 in experiment [1] was below 10 nM; in experiment [2] it was 10 to 1000 nM; in experiment [3], above 1000 nM; in experiment [4], 10 to 1000 nM.

Regarding `CC(c1cc2ccccn2c1-c1ccccn1)n1nc(-c2cccc(S(N)(=O)=O)c2)c2c(N)ncnc21` (stereo not shown) [Example 73, 3-(4-amino-1-{1-[3-(pyridin-2-yl)indolizin-2-yl]ethyl}-1H-pyrazolo[3,4-d]pyrimidin-3-yl)benzene-1-sulfonamide], the IC50 in experiment [1] was 10 to 1000 nM; in experiment [2], above 1000 nM; in experiment [3], above 1000 nM; in experiment [4], above 1000 nM.

On to `CC(c1cc2ccccn2c1-c1ccccn1)n1nc(-c2cc(F)cc(NS(C)(=O)=O)c2)c2c(N)ncnc21` (stereo not shown) [Example 74, N-[3-(4-amino-1-{1-[3-(pyridin-2-yl)indolizin-2-yl]ethyl}-1H-pyrazolo[3,4-d]pyrimidin-3-yl)-5-fluorophenyl]methanesulfonamide], for which the IC50 in experiment [1] is 10 to 1000 nM; in experiment [2], above 1000 nM; in experiment [3] it was above 1000 nM; in experiment [4], above 1000 nM.

Regarding `CC(c1cc2ccccn2c1-c1ccccn1)n1nc(-c2cc(F)cc(S(N)(=O)=O)c2)c2c(N)ncnc21` (stereo not shown) [Example 75, 3-(4-amino-1-{1-[3-(pyridin-2-yl)indolizin-2-yl]ethyl}-1H-pyrazolo[3,4-d]pyrimidin-3-yl)-5-fluorobenzene-1-sulfonamide], the IC50 in experiment [1], in experiment [2], in experiment [3] and in experiment [4] was above 1000 nM in each case.

As for `CC(c1cc2ccccn2c1-c1ccccn1)n1nc(-c2cc(N)cc(F)c2)c2c(N)ncnc21` (stereo not shown) [Example 76, 3-(3-amino-5-fluorophenyl)-1-{1-[3-(pyridin-2-yl)indolizin-2-yl]ethyl}-1H-pyrazolo[3,4-d]pyrimidin-4-amine], the IC50 in experiment [1] is 10 to 1000 nM; in experiment [2], 10 to 1000 nM; in experiment [3], above 1000 nM; in experiment [4] it was above 1000 nM.

On to `CC(c1cc2ccccn2c1-c1ccccn1)n1nc(-c2cc(O)cc(C#N)c2)c2c(N)ncnc21` (stereo not shown) [Example 77, 3-(4-amino-1-{1-[3-(pyridin-2-yl)indolizin-2-yl]ethyl}-1H-pyrazolo[3,4-d]pyrimidin-3-yl)-5-hydroxybenzonitrile], for which the IC50 in experiment [1] is below 10 nM; in experiment [2], 10 to 1000 nM; in experiment [3], above 1000 nM; in experiment [4], 10 to 1000 nM.

In the case of `CC(c1cc2ccccn2c1-c1ccccn1)n1nc(-c2cc(F)cc(-c3nnn[nH]3)c2)c2c(N)ncnc21` (stereo not shown) [Example 78, 3-[3-fluoro-5-(1H-1,2,3,4-tetrazol-5-yl)phenyl]-1-{1-[3-(pyridin-2-yl)indolizin-2-yl]ethyl}-1H-pyrazolo[3,4-d]pyrimidin-4-amine:ammonia 2:1], the IC50 in experiment [1], in experiment [2], in experiment [3] and in experiment [4] was above 1000 nM in each case.

Turning to `CC(c1cc2ccccn2c1-c1ccccc1)n1nc(-c2cc(O)cc(F)c2)c2c(N)ncnc21` (stereo not shown) [Example 85, 3-{4-amino-1-[1-(3-phenylindolizin-2-yl)ethyl]-1H-pyrazolo[3,4-d]pyrimidin-3-yl}-5-fluorophenol], the IC50 in experiment [1] was 10 to 1000 nM; in experiment [2], 10 to 1000 nM; in experiment [3], above 1000 nM; in experiment [4], above 1000 nM.

Consider `CC(c1cc2ccccn2c1-c1ccccc1F)n1nc(-c2cc(O)cc(F)c2)c2c(N)ncnc21` (stereo not shown) [Example 86, 3-(4-amino-1-{1-[3-(2-fluorophenyl)indolizin-2-yl]ethyl}-1H-pyrazolo[3,4-d]pyrimidin-3-yl)-5-fluoro-phenol], for which the IC50 in experiment [1] was 10 to 1000 nM; in experiment [2], above 1000 nM; in experiment [3], above 1000 nM; in experiment [4], 10 to 1000 nM.

For the compound `Cc1ccc2cc(C(C)n3nc(-c4cc(O)cc(F)c4)c4c(N)ncnc43)c(-c3ccccn3)n2c1` (stereo not shown) [Example 87, 3-(4-amino-1-{1-[6-methyl-3-(pyridin-2-yl)indolizin-2-yl]ethyl}-1H-pyrazolo[3,4-d]pyrimidin-3-yl)-5-fluorophenol], the IC50 in experiment [1] was 10 to 1000 nM; in experiment [2] it was 10 to 1000 nM; in experiment [3], above 1000 nM; in experiment [4], above 1000 nM.
